Data on 15 compounds can be found in ChEMBL document CHEMBL2176980, “Influence of chlorine or fluorine substitution on the estrogenic properties of 1-alkyl-2,3,5-tris(4-hydroxyphenyl)-1H-pyrroles” (J Med Chem, 2012).

In series [1] the target is T1, Estrogen receptor (Homo sapiens, UniProt P03372).
T1 sequence (P03372 whole entry): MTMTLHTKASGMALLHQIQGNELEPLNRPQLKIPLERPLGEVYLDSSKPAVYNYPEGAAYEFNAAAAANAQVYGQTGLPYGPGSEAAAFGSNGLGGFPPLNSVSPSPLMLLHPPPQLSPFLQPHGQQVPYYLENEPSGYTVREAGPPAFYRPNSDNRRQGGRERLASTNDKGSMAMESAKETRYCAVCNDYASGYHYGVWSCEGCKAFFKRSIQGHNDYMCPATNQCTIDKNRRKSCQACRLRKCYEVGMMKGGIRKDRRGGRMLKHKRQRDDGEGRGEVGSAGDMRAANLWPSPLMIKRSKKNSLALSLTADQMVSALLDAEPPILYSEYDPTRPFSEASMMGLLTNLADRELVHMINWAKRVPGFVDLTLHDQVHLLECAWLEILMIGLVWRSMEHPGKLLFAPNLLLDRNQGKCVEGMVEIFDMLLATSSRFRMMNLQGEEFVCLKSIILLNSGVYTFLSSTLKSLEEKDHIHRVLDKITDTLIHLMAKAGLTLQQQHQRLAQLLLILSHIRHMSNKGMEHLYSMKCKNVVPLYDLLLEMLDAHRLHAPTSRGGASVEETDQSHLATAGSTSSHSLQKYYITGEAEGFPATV
Put plainly: Activation of ERalpha in human MCF7/2a cells by luciferase reporter gene assay relative to untreated control. The class given is cell-based. For orientation: Reporter assays use an easily measured gene product as a stand-in for the process of interest.

Series [2] can be described thus: Chemical stability in pH 7.3 PBS buffer at 10 uM at 37 degC. The class given is physicochemical.
Series [3] deals with T2, Estrogen receptor (Homo sapiens) (UniProt P03372).
T2 sequence (whole entry): T1 sequence (P03372 whole entry)
Put plainly: Activation of ERalpha in human MCF7/2a cells pre-exposed to compound 1 to 3 hrs before 0.1 uM 4-OHT addition by luciferase reporter gene assay relative to untreated control. The series is classed as cell-based.

For series [4], the target named is T2, Estrogen receptor (Homo sapiens). Description: Activation of ERalpha in human MCF7/2a cells in presence of 0.1 uM 4-OHT by luciferase reporter gene assay relative to untreated control. The series is classed as cell-based.
For series [5], the target named is T1, Estrogen receptor. Description: Activation of human ERalpha expressed in human U2-OS cells by luciferase reporter gene assay relative to untreated control. The series is classed as cell-based, U2OS.
Series [6] concerns MCF7. Put plainly: Stimulation of cell growth in human MCF7 cells incubated for 20 to 100 hrs by crystal violet assay. The series is classed as cell-based.
Series [7] deals with MCF7. Description: Down regulation of ERalpha human MCF7 cells at 10 uM by Western blotting. The class given is functional, cell-based. In general terms: A western blot detects proteins with antibodies after separation by electrophoresis.
Series [8] concerns the target T2, Estrogen receptor (Homo sapiens). Put plainly: Antagonist activity at ERalpha in human MCF7/2a cells assessed as reduction in 1 nM estradiol-induced receptor activation by luciferase reporter gene assay relative to untreated control. The series is classed as functional, cell-based.
Series [9] can be described thus: Toxicity in hormone-independent human MDA-MB-231 cells assessed as growth inhibition incubated for 4 day s by crystal violet assay. The series is classed as cell-based.
Series [10] deals with MCF7. Description: Cytotoxicity in hormone-dependent human MCF7 cells assessed as growth inhibition incubated for 4 day s by crystal violet assay. The class given is functional, cell-based. The note with it: MCF7, 96 h.

Activity calls are given as the source filed them. No cut-off for these calls is given here.

The EC50 is the midpoint of the concentration-response curve. The low end stands for greater potency, the high end for weaker potency. One may read the half-life as how long it takes for the measured level to halve. On to `CCCn1c(-c2ccc(O)cc2)cc(-c2ccc(O)cc2)c1-c1ccc(O)cc1`, for which the EC50 worked out at 50 nM on Estrogen receptor [1] and 0.4 nM on Estrogen receptor [5]. The half-life at 10 µM in series [2] was 10.7 days. For the same compound, in [3], the outcome was Active. The result in series [4] was inactive.
Broadly, the IC50 is the concentration needed to halve the response being measured. Turning to `CCCn1c(-c2ccc(O)cc2F)cc(-c2ccc(O)cc2F)c1-c1ccc(O)cc1F`, the Activity result in the series on MCF7 [6] is on record as “Non-toxic”. Moreover, the EC50 was determined as 23 nM on Estrogen receptor [1] and 0.2 nM at Estrogen receptor [5]. Also, the result in the series on MCF7 [7] was Active. The result in series [8] was inactive. The half-inhibitory concentration (IC50) at 4 days in [9] was 21900 nM. In series [2], this compound showed a half-life at 10 µM of 44 days. Also, in the series with MCF7 [10], the IC50 was found to be 5600 nM.
`CCCn1c(-c2ccc(O)cc2F)cc(-c2ccc(O)cc2)c1-c1ccc(O)cc1`: the EC50 at Estrogen receptor [1] was determined as 240 nM; at Estrogen receptor [5], 0.67 nM. In addition, the result with MCF7 [7] was Active. Also, the result in [8] was inactive.
As for `CCCn1c(-c2ccc(O)cc2F)cc(-c2ccc(O)cc2)c1-c1ccc(O)cc1F`, the concentration giving a half-maximal response (EC50) on Estrogen receptor [1] was found to be 30 nM; on Estrogen receptor [5], 0.27 nM. Further, the outcome (in the series on MCF7 [7]; in series [3]) was Active. In addition, the outcome in series [8] and in [4] was inactive. Besides, the IC50 at 4 days in series [9] was 20900 nM.
For `CCCn1c(-c2ccc(O)cc2)cc(-c2ccc(O)cc2F)c1-c1ccc(O)cc1`, the concentration for a half-maximal effect (EC50) was found to be 26 nM on Estrogen receptor [1] and 0.84 nM on Estrogen receptor [5]. Moreover, the outcome in the series with MCF7 [7] was Active. For the same compound, the outcome in series [8] was inactive.
`Cn1c(-c2ccc(O)cc2)cc(-c2ccc(O)cc2)c1-c1ccc(O)cc1F`: the outcome (with MCF7 [7]; in series [8]) was inactive. On Estrogen receptor [5], the EC50 is 60 nM. Also, the IC50 in the series on MCF7 [10] was 24700 nM.
Turning to `CCCc1c(-c2ccc(O)cc2)cn(-c2ccc(O)cc2)c1-c1ccc(O)cc1`, the half-maximal effective concentration (EC50) on Estrogen receptor [1] turned out to be 70 nM; on Estrogen receptor [5], 1.6 nM. For the same compound, the half-life at 10 µM in [2] is 7.04 days. The outcome in [3] was Active. In addition, in series [4], the result was inactive.
`Cn1c(-c2ccc(O)cc2Cl)cc(-c2ccc(O)cc2)c1-c1ccc(O)cc1`: the result (with MCF7 [7]; in [8]) was inactive. Also, the EC50 on Estrogen receptor [5] came out at 100 nM. For the same compound, the IC50 in the series with MCF7 [10] amounted to 23800 nM.
Take `CCCn1c(-c2ccc(O)cc2)cc(-c2ccc(O)cc2)c1-c1ccc(O)cc1Cl`: the figures for the EC50 at Estrogen receptor [1] and at Estrogen receptor [5] were 63 nM and 0.31 nM, respectively. In addition, in the series on MCF7 [7], the result was Active. Besides, the outcome in series [8] was inactive.
In the case of `Cn1c(-c2ccc(O)cc2F)cc(-c2ccc(O)cc2)c1-c1ccc(O)cc1F`, the Activity entry in the series on MCF7 [6] is “Non-toxic”. In addition, the 50% effective concentration (EC50) stood at 290 nM on Estrogen receptor [1] and 15 nM at Estrogen receptor [5]. Moreover, the result in the series on MCF7 [7] was Active. For the same compound, in [8], the result was inactive. Besides, the IC50 with MCF7 [10] stood at 8500 nM.
Regarding `CCCn1c(-c2ccc(O)cc2)cc(-c2ccc(O)cc2)c1-c1ccc(O)cc1F`, the EC50 was found to be 70 nM at Estrogen receptor [1] and 0.12 nM at Estrogen receptor [5]. The outcome in the series on MCF7 [7] was Active. In [8], the result was inactive. The half-life at 10 µM in [2] is 31 days.
In the case of `CCCc1c(-c2ccc(O)cc2)nn(-c2ccc(O)cc2)c1-c1ccc(O)cc1` [PROPYLPYRAZOLETRIOL], the concentration for a half-maximal effect (EC50) came to 3 nM on Estrogen receptor [1] and 0.1 nM at Estrogen receptor [5]. The result in the series with MCF7 [7] was Active. The IC50 in the series on MCF7 [10] was found to be 27200 nM.
As to `Cn1c(-c2ccc(O)cc2)cc(-c2ccc(O)cc2)c1-c1ccc(O)cc1Cl`, the concentration giving a half-maximal response (EC50) on Estrogen receptor [1] was determined as 600 nM; on Estrogen receptor [5], 16 nM. In the series with MCF7 [7], the outcome was Active. Also, in series [8], the result was inactive. Besides, the IC50 in the series on MCF7 [10] came out at 19100 nM.
As to `Cn1c(-c2ccc(O)cc2F)cc(-c2ccc(O)cc2)c1-c1ccc(O)cc1`, the outcome (in the series on MCF7 [7]; in [8]) was inactive. Also, the 50% effective concentration (EC50) on Estrogen receptor [5] stood at 24 nM. Moreover, in the series on MCF7 [10], the IC50 stood at 25500 nM.
Take `CCCn1c(-c2ccc(O)cc2Cl)cc(-c2ccc(O)cc2)c1-c1ccc(O)cc1`: the result in the series with MCF7 [7] was Active. The result in [8] was inactive. This compound also had a half-life at 10 µM in series [2] of 61.4 days. The same compound registered an EC50 at Estrogen receptor [5] of 47 nM.
